Measured values from ChEMBL document CHEMBL3580588, “Inhibitors of the PAR-2 Signaling Pathway May Treat Pain and Inflammation” (ACS Med Chem Lett, 2015).
pIC50: −log10 of the molar value.

What follows are compounds tested against Proteinase-activated receptor 1 (Homo sapiens) (UniProt P25116) (assay: Antagonist activity against PAR1 in human HT29 cells assessed as inhibition of thrombin-induced Ca2+ responses pre-incubated for 30 mins before thrombin stimulation by FLIPR assay).
Proteinase-activated receptor 1 (Homo sapiens), sequence (P25116 whole entry, looked up): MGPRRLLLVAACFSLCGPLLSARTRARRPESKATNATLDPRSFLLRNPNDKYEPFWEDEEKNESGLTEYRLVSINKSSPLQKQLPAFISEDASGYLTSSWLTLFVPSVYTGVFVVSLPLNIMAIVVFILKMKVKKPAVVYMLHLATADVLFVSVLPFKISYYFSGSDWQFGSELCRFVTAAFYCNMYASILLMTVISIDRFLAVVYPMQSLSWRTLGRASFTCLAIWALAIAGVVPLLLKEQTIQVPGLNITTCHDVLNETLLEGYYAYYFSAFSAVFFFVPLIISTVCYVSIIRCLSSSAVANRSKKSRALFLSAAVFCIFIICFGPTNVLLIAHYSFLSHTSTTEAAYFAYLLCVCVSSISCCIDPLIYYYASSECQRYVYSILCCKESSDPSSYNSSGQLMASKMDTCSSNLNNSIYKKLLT

Row | pIC50 | SMILES
1 | 5.26 | CCOC(=O)[C@H]1CCCN(C(=O)c2cn3nc(-c4ccc(F)cc4)cc(C(F)(F)F)c3n2)[C@@H]1C
2 | < 6.30 | CC(C)c1cc(-c2ccc(F)cc2)nn2cc(C(=O)N3CCN(C(=O)Cc4ccsc4)[C@@H](C)C3)nc12
3 | < 4.30 | CC(C)(C)OC(=O)N1CCN(C(=O)c2cn3nc(-c4ccc(F)cc4)cc(C(C)(C)C)c3n2)C(C)(C)C1
